In US8173631B2, “Cyclic amine compounds” (Daiichi Sankyo Company, Limited, priority 2008, dated 2012):

Biological target: T1, human calcium-sensing receptor (CaSR) (Homo sapiens, UniProt P41180)
T1 construct: expressed in transfected cells
T1 sequence (P41180 20-1078): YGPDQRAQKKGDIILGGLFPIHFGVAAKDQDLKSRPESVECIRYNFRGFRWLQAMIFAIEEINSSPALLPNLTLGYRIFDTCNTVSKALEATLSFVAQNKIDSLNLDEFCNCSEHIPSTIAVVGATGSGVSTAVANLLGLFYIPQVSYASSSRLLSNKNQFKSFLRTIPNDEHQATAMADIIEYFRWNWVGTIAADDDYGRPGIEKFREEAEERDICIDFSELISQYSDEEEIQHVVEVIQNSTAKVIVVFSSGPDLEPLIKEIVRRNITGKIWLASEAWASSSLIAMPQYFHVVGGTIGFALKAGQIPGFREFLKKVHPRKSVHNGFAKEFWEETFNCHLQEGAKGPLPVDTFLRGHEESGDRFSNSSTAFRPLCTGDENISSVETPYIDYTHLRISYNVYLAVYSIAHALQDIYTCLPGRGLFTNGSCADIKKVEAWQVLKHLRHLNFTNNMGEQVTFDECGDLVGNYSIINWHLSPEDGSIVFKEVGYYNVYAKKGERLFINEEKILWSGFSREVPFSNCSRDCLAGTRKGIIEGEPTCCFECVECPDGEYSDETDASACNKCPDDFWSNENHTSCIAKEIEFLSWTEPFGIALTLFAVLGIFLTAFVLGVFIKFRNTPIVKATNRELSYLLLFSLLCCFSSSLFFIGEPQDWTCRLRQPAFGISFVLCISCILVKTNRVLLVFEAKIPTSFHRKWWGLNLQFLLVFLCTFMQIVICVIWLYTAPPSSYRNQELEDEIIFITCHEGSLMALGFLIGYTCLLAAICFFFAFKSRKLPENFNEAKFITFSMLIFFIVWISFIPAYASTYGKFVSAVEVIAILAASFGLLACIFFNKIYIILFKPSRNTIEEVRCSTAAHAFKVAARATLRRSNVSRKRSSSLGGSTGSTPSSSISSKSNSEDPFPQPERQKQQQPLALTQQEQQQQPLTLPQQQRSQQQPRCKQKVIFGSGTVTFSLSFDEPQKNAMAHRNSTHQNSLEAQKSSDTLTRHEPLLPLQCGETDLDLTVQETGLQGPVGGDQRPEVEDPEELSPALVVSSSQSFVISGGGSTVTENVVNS
Assay: Inhibitory activity on calcium-sensing receptor (CaSR), intracellular calcium increase as indicator (FLIPR, CHO/hCaSR)
Format: cell-based
Conditions: CHO cells stably expressing human CaSR; inhibition of intracellular Ca increase induced by extracellular CaCl2
Protocol: Evaluation of inhibitory activity on calcium-sensing receptor (CaSR) using intracellular calcium increase as an indicator
The preparation which is prepared by adding CHO/hCaSR to F12 medium (manufactured by Invitrogen) containing 10% fetal bovine serum to have 2×10^5 cells/mL was applied to a 384-well in an amount of 50 μL/well, and then incubated overnight in a CO2 incubator. The culture supernatant was completely removed, the assay buffer (20 mM HEPES, HBSS (Ca and Mg free) containing 2.5 mM probenecid, pH 7.4) containing Calcium 3 (manufactured by Molecular Devices), i.e., a fluorescent intracellular calcium indicator, was added thereto in an amount of 25 μL/well, and the mixture was maintained for 1 hour in a CO2 incubator. Meanwhile, Calcium 3 was prepared according to the protocol enclosed in FLIPR Calcium 3 Assay Kit (manufactured by Molecular Devices). After maintaining it for 1 hour, a solution in which the test compound is prepared to have 2.1 to 20,000 nM (final concentration of 1.05 to 10,000 nM) by an assay buffer was added thereto in an amount of 25 μL/well, and maintained for 15 minutes in a CO2 incubator. Then, the CaCl2 solution prepared to have […] by using the assay buffer was added in an amount of 25 μL/well, and the resulting intracellular Ca increase (i.e., fluorescence intensity) was measured over time using a fluorescence imaging plate reader (FLIPR, manufactured by Molecular Devices). From the data obtained, the difference between the fluorescence intensity before the addition of CaCl2 solution and the maximum fluorescence intensity after the addition of CaCl2 solution was calculated, and the 50% inhibition concentration (IC50) of the test compound was obtained.

`CCC[C@@H](OC[C@H](O)CN1CCC[C@H]1Cc1ccc(C)c(F)c1)c1ccc(C)cc1CCC(=O)O` [Example 64] and `CC[C@@H](OC[C@H](O)CN1CCC[C@H]1Cc1ccc(C)c(F)c1)c1ccc(Cl)cc1CCC(=O)O` [Example 95] cannot be ordered by IC50: ≤ 3.29 µM for the first, ≤ 3.25 µM for the second.

`CCC[C@@H](OC[C@H](O)CN1CCC[C@H]1Cc1ccc(C)c(F)c1)c1cccc(OC)c1CCC(=O)O` [Example 65] and `CCOc1cccc([C@@H](C)OC[C@H](O)CN2CCC[C@H]2Cc2ccc(C)c(F)c2)c1CCC(=O)O` [Example 71] cannot be ordered by IC50: ≤ 3.19 µM for the first, ≤ 3.28 µM for the second.

`CC[C@@H](OC[C@H](O)CN1CCC[C@H]1Cc1ccc(C)c(F)c1)c1cc(F)c(C)cc1CCC(=O)O` [Example 69] and `CC[C@@H](OC[C@H](O)CN1CCC[C@H]1Cc1ccc(C)c(F)c1)c1cc(F)c(C)cc1CCCCC(=O)O` [Example 70] cannot be ordered by IC50: ≤ 3.27 µM for the first, ≤ 3.09 µM for the second.

`CCOc1cccc([C@@H](C)OC[C@H](O)CN2CCC[C@H]2Cc2ccc(C)c(F)c2)c1CCCCC(=O)O` [Example 72] and `Cc1ccc(C[C@@H]2CCCN2C[C@@H](O)CO[C@H](C)c2cccc(OC(C)C)c2CCCCC(=O)O)cc1F` [Example 74] cannot be ordered by IC50: ≤ 3.1 µM for the first, ≤ 3.02 µM for the second.

`Cc1ccc(C[C@@H]2CCCN2C[C@@H](O)CO[C@H](C)c2cccc(OC(C)C)c2CCC(=O)O)cc1F` [Example 73] and `Cc1ccc(C[C@@H]2CCCN2C[C@@H](O)CO[C@H](C)c2cccc(OC(F)F)c2CCC(=O)O)cc1F` [Example 75] cannot be ordered by IC50: ≤ 3.19 µM for the first, ≤ 3.14 µM for the second.

`Cc1ccc(C[C@@H]2CCCN2C[C@@H](O)CO[C@H](C)c2ccccc2CCCCCC(=O)O)cc1F` [Example 76] and `Cc1ccc(C[C@@H]2CCCN2C[C@@H](O)CO[C@H](C)c2ccccc2CCCCCCC(=O)O)cc1F` [Example 77] cannot be ordered by IC50: ≤ 3.29 µM for the first, ≤ 3.2 µM for the second.

`Cc1ccc(C[C@@H]2CCCN2C[C@@H](O)CO[C@H](C)c2ccc(Cl)cc2CCC(=O)O)cc1F` [Example 78] and `Cc1ccc(C[C@@H]2CCCN2C[C@@H](O)CO[C@H](C)c2cc(Cl)ccc2CCC(=O)O)cc1F` [Example 79] cannot be ordered by IC50: ≤ 3.35 µM for the first, ≤ 3.35 µM for the second.

`Cc1ccc(C[C@@H]2CCCN2C[C@@H](O)CO[C@H](C)c2cccc(Cl)c2CCC(=O)O)cc1F` [Example 80] and `Cc1ccc(C[C@@H]2CCCN2C[C@@H](O)CO[C@H](C)c2cccc(F)c2CCC(=O)O)cc1Cl` [Example 90] cannot be ordered by IC50: ≤ 3.35 µM for the first, ≤ 3.35 µM for the second.

`Cc1ccc(C[C@@H]2CCCN2C[C@@H](O)CO[C@H](C)c2ccc(Cl)cc2CCCCC(=O)O)cc1F` [Example 81] and `CC[C@@H](OC[C@H](O)CN1CCC[C@H]1Cc1ccc(C)c(F)c1)c1cc(Cl)ccc1CCC(=O)O` [Example 94] cannot be ordered by IC50: ≤ 3.16 µM for the first, ≤ 3.25 µM for the second.

`C[C@@H](OC[C@H](O)CN1CCC[C@H]1Cc1ccc(F)c(Cl)c1)c1ccccc1CCC(=O)O` [Example 83] and `Cc1ccc(C[C@@H]2CCCN2C[C@@H](O)CO[C@H](C)c2ccccc2CCC(=O)O)cc1Cl` [Example 84] cannot be ordered by IC50: ≤ 3.45 µM for the first, ≤ 3.48 µM for the second.

`C[C@@H](OC[C@H](O)CN1CCC[C@H]1Cc1ccc(Cl)c(Cl)c1)c1ccccc1CCC(=O)O` [Example 88] and `CCc1cc(C[C@@H]2CCCN2C[C@@H](O)CO[C@H](C)c2ccccc2CCC(=O)O)ccc1Cl` [Example 89] cannot be ordered by IC50: ≤ 3.33 µM for the first, ≤ 3.38 µM for the second.

`C[C@@H](OC[C@H](O)CN1CCC[C@H]1Cc1ccc(Cl)c(F)c1)c1cccc(F)c1CCC(=O)O` [Example 91] and `C[C@@H](OC[C@H](O)CN1CCC[C@H]1Cc1ccc(Cl)c(Cl)c1)c1cccc(F)c1CCC(=O)O` [Example 92] cannot be ordered by IC50: ≤ 3.32 µM for the first, ≤ 3.21 µM for the second.

`CCc1cc(C[C@@H]2CCCN2C[C@@H](O)CO[C@H](C)c2cccc(F)c2CCC(=O)O)ccc1Cl` [Example 93] and `CCc1cc(C[C@@H]2CCCN2C[C@@H](O)CO[C@H](CC)c2cccc(F)c2CCC(=O)O)ccc1Cl` [Example 109] cannot be ordered by IC50: ≤ 3.25 µM for the first, ≤ 3.16 µM for the second.

`C[C@@H](OC[C@H](O)CN1CCC[C@H]1Cc1ccc(Cl)c(Cl)c1)c1cc(F)ccc1CCC(=O)O` [Example 96] and `CC[C@@H](OC[C@H](O)CN1CCC[C@H]1Cc1ccc(Cl)c(Cl)c1)c1cc(F)ccc1CCC(=O)O` [Example 104] cannot be ordered by IC50: ≤ 3.21 µM for the first, ≤ 3.12 µM for the second.

`Cc1ccc([C@@H](C)OC[C@H](O)CN2CCC[C@H]2Cc2ccc(Cl)c(Cl)c2)c(CCC(=O)O)c1` [Example 97] and `CC[C@@H](OC[C@H](O)CN1CCC[C@H]1Cc1ccc(Cl)c(Cl)c1)c1ccc(C)cc1CCC(=O)O` [Example 102] cannot be ordered by IC50: ≤ 3.24 µM for the first, ≤ 3.15 µM for the second.

`CCc1cc(C[C@@H]2CCCN2C[C@@H](O)CO[C@H](C)c2ccc(C)cc2CCC(=O)O)ccc1Cl` [Example 98] and `CCc1cc(C[C@@H]2CCCN2C[C@@H](O)CO[C@H](CC)c2ccc(C)cc2CCC(=O)O)ccc1Cl` [Example 103] cannot be ordered by IC50: ≤ 3.28 µM for the first, ≤ 3.19 µM for the second.

`CCc1cc(C[C@@H]2CCCN2C[C@@H](O)CO[C@H](C)c2cc(F)ccc2CCC(=O)O)ccc1Cl` [Example 99] and `CCc1cc(C[C@@H]2CCCN2C[C@@H](O)CO[C@H](CC)c2cc(F)ccc2CCC(=O)O)ccc1Cl` [Example 105] cannot be ordered by IC50: ≤ 3.25 µM for the first, ≤ 3.16 µM for the second.

`CC[C@@H](OC[C@H](O)CN1CCC[C@H]1Cc1ccc(Cl)c(Cl)c1)c1ccc(Cl)cc1CCC(=O)O` [Example 100] and `CCc1cc(C[C@@H]2CCCN2C[C@@H](O)CO[C@H](CC)c2ccc(Cl)cc2CCC(=O)O)ccc1Cl` [Example 101] cannot be ordered by IC50: ≤ 3.03 µM for the first, ≤ 3.06 µM for the second.

`C[C@@H](OC[C@H](O)CN1CCC[C@H]1Cc1ccc(Cl)c(Cl)c1)c1cc(F)cc(F)c1CCC(=O)O` [Example 106] and `CC[C@@H](OC[C@H](O)CN1CCC[C@H]1Cc1ccc(Cl)c(Cl)c1)c1cc(F)cc(F)c1CCC(=O)O` [Example 110] cannot be ordered by IC50: ≤ 3.1 µM for the first, ≤ 3.02 µM for the second.

`CCc1cc(C[C@@H]2CCCN2C[C@@H](O)CO[C@H](C)c2cc(F)cc(F)c2CCC(=O)O)ccc1Cl` [Example 107] and `CCc1cc(C[C@@H]2CCCN2C[C@@H](O)CO[C@H](CC)c2cc(F)cc(F)c2CCC(=O)O)ccc1Cl` [Example 111] cannot be ordered by IC50: ≤ 3.14 µM for the first, ≤ 3.05 µM for the second.

`CC[C@@H](OC[C@H](O)CN1CCC[C@H]1Cc1ccc(Cl)c(Cl)c1)c1cccc(F)c1CCC(=O)O` [Example 108] and `CC[C@@H](OC[C@H](O)CN1CCC[C@H]1Cc1ccc(Cl)c(Cl)c1)c1cccc(Cl)c1CCC(=O)O` [Example 113] cannot be ordered by IC50: ≤ 3.12 µM for the first, ≤ 3.03 µM for the second.

`CC[C@@H](OC[C@H](O)CN1CCC[C@H]1Cc1ccc(C)c(F)c1)c1cccc(Cl)c1CCC(=O)O` [Example 112] and `CC[C@@H](OC[C@H](O)CN1CCC[C@H]1Cc1ccc(Cl)c(Cl)c1)c1cccc(C)c1CCC(=O)O` [Example 120] cannot be ordered by IC50: ≤ 3.25 µM for the first, ≤ 3.15 µM for the second.

`CCc1cc(C[C@@H]2CCCN2C[C@@H](O)CO[C@H](CC)c2cccc(Cl)c2CCC(=O)O)ccc1Cl` [Example 114] and `CCc1cc(C[C@@H]2CCCN2C[C@@H](O)CO[C@H](CC)c2cccc(OC)c2CCC(=O)O)ccc1Cl` [Example 116] cannot be ordered by IC50: ≤ 3.06 µM for the first, ≤ 3.09 µM for the second.

`CC[C@@H](OC[C@H](O)CN1CCC[C@H]1Cc1ccc(Cl)c(Cl)c1)c1cccc(OC)c1CCC(=O)O` [Example 115] and `CC[C@@H](OC[C@H](O)CN1CCC[C@H]1Cc1ccc(Cl)c(Cl)c1)c1cc(F)c(C)cc1CCC(=O)O` [Example 118] cannot be ordered by IC50: ≤ 3.05 µM for the first, ≤ 3.04 µM for the second.

`CC[C@@H](OC[C@H](O)CN1CCC[C@H]1Cc1ccc(Cl)c(Cl)c1)c1cc(F)c(F)cc1CCC(=O)O` [Example 117] and `CCc1cc(C[C@@H]2CCCN2C[C@@H](O)CO[C@H](CC)c2cc(F)c(F)cc2CCC(=O)O)ccc1Cl` [Example 121] cannot be ordered by IC50: ≤ 3.02 µM for the first, ≤ 3.05 µM for the second.

For `CCc1cc(C[C@@H]2CCCN2C[C@@H](O)CO[C@H](CC)c2cc(F)c(C)cc2CCC(=O)O)ccc1Cl` [Example 119], the IC50 was ≤ 3.08 µM.
